This is an account of results in patent US20150157021A1, “NEW ANTIFUNGAL COMPOSITIONS” (DSM IP ASSETS B.V., priority 2012, published 2015).

In the assay the test system is Botrytis cinerea. The assay is described as follows: Treatment of wounded sweet peppers inoculated with Botrytis cinerea (Examples 9, 10). The note with it: 20° C., 400 ppm natamycin. Type of assay: in vivo. As for the experimental part:
Ten fresh, organic sweet peppers were used per treatment. Each sweet pepper was soaked in a 180 ppm hypochlorite solution for 10 minutes, then rinsed thoroughly with fresh tap water and dried. The peel of each disinfected sweet pepper was wounded once using a cork borer according to the method described by de Lapeyre de Bellaire and Dubois (1987). Subsequently, each wound was inoculated with 10 μl of a Botrytis cinerea suspension containing 1×10^5 of spores/ml. After incubation for 3 hours at 20° C., each wound and the skin area of 0.5 cm around the wound was treated with in total 75 μl of a freshly prepared aqueous antifungal composition comprising either 400 ppm natamycin (DSM Food Specialties, Delft, The Netherlands), 600 ppm fenhexamid or both. Each antifungal composition also comprised 3.2% (w/w) beeswax, 0.8% (w/w) glycerol, 0.7% (w/w) polyoxyethylene sorbitan monostearate (Tween 60), 0.2% (w/w) polyoxyethylene sorbitan monooleate (Tween 80), 0.05% (w/w) methylhydroxyethyl-cellulose (MHEC), 0.03% (w/w) anti-foaming agent, 0.02% (w/w) xanthan gum, 0.02% (w/w) citric acid, 0.01% (w/w) lactic acid and 0.01% potassium sorbate. A composition without natamycin or fenhexamid was used as control.
The treated sweet peppers were incubated in a closed box in the dark at 20° C. and assessed on mould growth during a 26-day incubation period. The antifungal activity (in %) of the individual and combined active ingredients was determined by calculating the reduction in mould growth observed on the sweet peppers treated with the antifungal composition in comparison to the mould growth on the sweet peppers treated with the control composition according to the Colby method (Colby, 1967) described in Example 5.
The experiment was conducted as described in Example 9, except for the fact that each wounded and inoculated sweet pepper was treated with 75 μl of a freshly prepared aqueous antifungal composition comprising either 400 ppm natamycin (DSM Food Specialties, Delft, The Netherlands), 800 ppm carboxin or both. The treated sweet peppers were incubated in a closed box in the dark at 20° C. and assessed on mould growth during a 26-day incubation period. During incubation, the treated sweet peppers were assessed on mould growth according to the method described in Example 9.

As to `C[C@@H]1C/C=C/C=C/C=C/C=C/[C@H](O[C@@H]2O[C@H](C)[C@@H](O)[C@H](N)[C@@H]2O)C[C@@H]2O[C@](O)(C[C@@H](O)C[C@H]3O[C@@H]3/C=C/C(=O)O1)C[C@H](O)[C@H]2C(=O)O` [Natamycin, natamycin], the “Observed antifungal activity O (%)” value by setting is: (13-17 days, 600 ppm fenhexamid or both) 86%; (17-19 days, 800 ppm carboxin or both) 86%; (18-22 days, 600 ppm fenhexamid or both) 86%; (20-21 days, 800 ppm carboxin or both) 87%; (6 days, 600 ppm fenhexamid or both) 95%; (8 days, 600 ppm fenhexamid or both) 94%. For the same molecule, the “Observed antifungal activity O (%)” value runs as follows: (10 days, 600 ppm fenhexamid or both) 89%; (11 days, 600 ppm fenhexamid or both) 87%; (22 days, 800 ppm carboxin or both) 85%; (24 days, 600 ppm fenhexamid or both) 83%; (24 days, 800 ppm carboxin or both) 83%; (25 days, 600 ppm fenhexamid or both) 82%. Besides, the “Observed antifungal activity O (%)” value (25 days, 800 ppm carboxin or both) is on record as 82%; the “Observed antifungal activity O (%)” value (26 days, 600 ppm fenhexamid or both) was determined as 79%; the “Observed antifungal activity O (%)” value (26 days, 800 ppm carboxin or both) came to 79%.
